Results taken from patent publication EP0119450A1, “Preparation of aminopyrazolines and intermediates used therein” (THE WELLCOME FOUNDATION LIMITED, priority 1983, dated 1984).

Experiments:
[1] = molecular target: Cyclooxygenase; test: Enzyme assay, inhibition of cyclooxygenase (method based on Borgeat et al); type: biochemical
[2] = molecular target: Lipoxygenase; test: Enzyme assay, inhibition of lipoxygenase (method based on Borgeat et al); type: biochemical
[3] = Storage stability at normal room temperature in sealed containers, analysed by T.l.c.; type: physicochemical; settings: freshly prepared samples, T.l.c. at regular intervals
Source text: Freshly prepared samples of the compound of Example 29/30B and the compound 2B (the latter also being disclosed in European Specification 55 418) were stored separately at normal room temperature in sealed containers and analysed at regular intervals by T.l.c.

[4] = system: Prostaglandin E2; test: Prostaglandin synthesis in carrageenin sponge exudates; type: in vivo; settings: Rattus norvegicus, po; male rats, carrageenin sponge exudate collected at 24 hours; read-out: ED50 Prostaglandin Production (rat)
Method: (§1) The compound of Example 29/3UB was subjected to the following tests. Results are given in Table II as ED50 mg/kg upon oral administration.
(§2) Inflammatory exudates were collected 24 hours after the subcutaneous implantation in male rats (180-220g) of sterile polyester sponges impregnated with 2% carrageenin. Prostaglandin E2 concentrations in sponge exudates were measured by bioassay and total leucocyte numbers were estimated using counting chambers and phase contrast microscopy. Drugs were administered orally in aqueous solution to groups of five animals at the time of sponge implantation, 5-8 hours later and 3 hours before sponge removal. Results are expressed as a percentage of control values obtained from similar groups of animals receiving vehicle alone. ED50 values were calculated for active compounds. The full dose-response data for lead compounds were subjected to regression analysis and ED50 values with 95% confidence limits were obtained.

[5] = system: total leucocyte numbers; test: Leucocyte accumulation in carrageenin sponge exudates; type: in vivo; settings: Rattus norvegicus, po, male rats, carrageenin sponge exudate collected at 24 hours
Method: as §1, §2

[6] = system: female rats; test: Carrageenin-induced paw oedema; type: in vivo; settings: Rattus norvegicus, po, swelling measured 1-4 hours after carrageenin
Method: as §1
Oedema was induced by the sub-plantar injection of 2% carrageenin (0.1 ml) in the hind paws of female rats (100-130g). Swelling was measured 1-4 hours following carrageenin injection using a micrometer gauge. Drugs in aqueous solution were administered orally to groups of five rats at the time of carrageenin injection. Mean swelling was expressed as a percentage of control values obtained from similar groups of animals receiving vehicle alone.

[7] = system: female mice; test: Phenylbenzoquinone (PBQ) induced writhing; type: in vivo; settings: Mus musculus, po, p.o. 1 hour before PBQ 2.5 mg/kg i.p.
Method: as §1
Writhing was induced in groups of 5 female mice (20-25g) following the intraperitoneal injection of phenylbenzoquinone (PBQ; 2.5 mg/kg). Anti- nociceptive effects of drugs were assessed by observing the reduction in writhing responses 10-12½ min after PBQ injection. Drugs were administered orally in aqueous solution 1 hour before PBQ injection and drug effects were expressed as a percentage of control values obtained from animals receiving vehicle alone.

Compound	IC50 [1] [µM]	IC50 [2] [µM]	further results
CCCN(C=O)C1=NN(c2cccc(C(F)(F)F)c2)CC1 [Example 5A, N-(n-propyl)-N-[1-(3-trifluoromethylphenyl)-2-pyrazolin-3-yl]-formamide]	10	1	–
C#CCN(C=O)C1=NN(c2cccc(C(F)(F)F)c2)CC1 [Example 4A, N-(2-propynyl)-N-[1-(3-trifluoromethylphenyl)-2-pyrazolin-3-yl]formamide]	3	0.5	–
C=CCN(C=O)C1=NN(c2cccc(C(F)(F)F)c2)CC1 [Example 3A, N-(2-propenyl)-N-[1-(3-trifluoromethylphenyl)-2-pyrazolin-3-yl]formamide]	5	2	–
O=CN(CC1CC1)C1=NN(c2cccc(C(F)(F)F)c2)CC1 [Example 8A, N-(cyclopropylmethyl)-N-[1-(3-trifluoromethylphenyl)-2-pyrazolin-3-yl]formamide]	8	2	–
CNC1=NN(c2cccc(C(F)(F)F)c2)CC1 [Example 2B, 3-methylamino-1-(3-trifluoromethylphenyl)-2-pyrazoline]	–	–	decomposition on storage [3]: significant decomposition after six months
CCC(=O)N(C)C1=NN(c2cccc(C(F)(F)F)c2)CC1 [Example 32, N-methyl-N-[1-(3-trifluoromethylphenyl)-2-pyrazolin-3-yl]propionamide]	> 10	1	–
O=CN(CC=CCCl)C1=NN(c2cccc(C(F)(F)F)c2)CC1 [Example 34]	10	3	–
O=CN(Cc1ccc(F)cc1)C1=NN(c2ccc(Br)c(C(F)(F)F)c2)CC1 [Example 18B, N-[1-(4-bromo-3-trifluoromethylphenyl)-2-pyrazolin-3-yl]-N-(4-fluorobenzyl)formamide]	2	5	–

Continued by falling IC50 [1], values first:

IC50 [1] [µM]	IC50 [2] [µM]	Compound	further results
2	1.5	O=CN(CC=Cc1ccccc1)C1=NN(c2cccc(C(F)(F)F)c2)CC1 [Example 9A, N-(cinnamyl)-N-[1-(3-trifluoromethylphenyl)-2-pyrazolin-3-yl]formamide]	–
1	1	CC(=O)N(C)C1=NN(c2cccc(C(F)(F)F)c2)CC1 [29&30B, N-methyl-N-[1-(3-trifluoromethylphenyl)-2-pyrazolin-3-yl] acetamide]	decomposition on storage [3]: no significant decomposition, 2 years from the outset of the Experiment; ED50 [4]: 35 mg/kg; ED50 [5]: 57 mg/kg; ED50 [6]: 15 mg/kg; ED50 [7]: 45 mg/kg
1	1	CC(=O)N(C)C1=NN(c2ccc(Br)c(C(F)(F)F)c2)CC1 [Example 45, N-methyl-N-[1-(4-bromo-3-trifluoromethylphenyl)-2-pyrazolin-3-yl]acetamide]	–
